Here are results for 9 substances from patent publication US10393751B2, “Specific peptide binders to proteins identified via systematic discovery, maturation and extension process” (Roche […], Inc., priority 2015, dated 2019).

The target of the assay is streptavidin (Streptomyces avidinii, UniProt P22629). In words: Surface Plasmon Resonance (Biacore X100) of synthesized peptides on immobilized streptavidin. The class given is binding. The conditions noted are these: for kon / koff / Kd / KD (equilibrium dissociation constant, kd/ka): SPR; for kon: read-out: Ka (association rate constant); for koff: read-out: Kd (dissociation rate constant). From the text: A selection of streptavidin peptide binders listed in Table 15 were synthesized using standard column-based synthesis techniques by UW Biotechnology center (Madison, Wis.) or by Peptide2.0 (Chantilly, Va.) at 98-99% purity. Strep-tag II peptide NH2-SAWSHPQFEK-COOH was purchased from IBA GmbH (Goettingen, Germany). Synthesized peptides were then characterized by Surface Plasmon Resonance (SPR) to identify binding characteristics including the association rate constant (ks), dissociation rate constant (kd), and equilibrium dissociation rate constant (kd/ka=KD). In one aspect, SPR experiments were performed by using Biacore X100 instrument (GE Healthcare). Preliminarily, 60 μl of 100 μg/ml streptavidin in 10 mM Na-acetate, pH5.0 was immobilized to flow cell 2 (Fc2) of a sensor chip CM5 (GE Healthcare) using Amine Coupling Kit (GE Healthcare) at 20° C. for 6 min. Peptide stock solutions were prepared at 5 or 10 mM concentration in water and diluted in HBS-EP+ (GE Healthcare) buffer before SPR experiments. Peptide binding was performed in a multiple kinetics mode using HBS-EP+ as a running buffer and 0.2 M NaCl, 10 mM NaOH or 10 mM HCl-glycine, […] as regeneration buffer. Binding kinetics parameters were calculated with Biacore X100 software.
On the technique in general: Surface plasmon resonance follows binding to a sensor surface in real time, without labels.

[1] abbreviates: streptavidin immobilized on CM5 chip, HBS-EP+ running buffer.
Where [2] appears, read: KD (equilibrium dissociation constant, kd/ka), streptavidin immobilized on CM5 chip, HBS-EP+ running buffer.
The mark [3] stands for this setting: KD of peptide-streptavidin complex, restated in text from Table 15.

Broadly, the Kd is a measure of binding affinity in units of concentration. The low end stands for tighter binding, the high end for weaker binding.

Sequence of streptavidin (P22629 25-183, species assumed): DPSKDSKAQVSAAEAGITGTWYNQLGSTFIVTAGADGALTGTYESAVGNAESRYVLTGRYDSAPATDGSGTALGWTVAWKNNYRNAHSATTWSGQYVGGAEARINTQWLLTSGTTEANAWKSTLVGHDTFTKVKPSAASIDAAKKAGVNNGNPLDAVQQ

Regarding “H-AFDYLAQYHGG-NH2 [NH2-AFDYLAQYHGG-amide]”, under setting [1], the kon was 23300 M⁻¹ s⁻¹ and the koff was 0.0354 s⁻¹.

Consider H-ADYLAEYHGG-OH [NH2-ADYLAEYHGG-COOH], for which the Kd is, setting by setting: under setting [2], 96 ± 5 µM; under setting [3], around 96 µM.

For “H-WTHPQFEQPKA-NH2 [NH2-WTHPQFEQPKA-amide]”, for the setting “result in words”, the “KD as compared with the Strep-Tag II peptide (SEQ ID NO:233)” value is on record as “decreased KD”.

In the case of H-WTHPQFEQK-OH [NH2-WTHPQFEQK-COOH], the “KD as compared with the Strep-Tag II peptide (SEQ ID NO:233)” value (result in words) is “decreased KD”.

In the case of GNSFDDWLASKG [NH2-GNSFDDWLASKG-amide], the “KD (equilibrium dissociation constant, kd/ka)” value under setting [1] is listed as “Irreversible”. The “binding as compared with the parent peptide NSFDDWLAKGG” value (result in words) is “irreversible binding”.

As to “H-RDPAPAWAHGGG-NH2 [NH2-RDPAPAWAHGGG-amide]”, the Kd under setting [3] is around 4.66 µM. In addition, under setting [1], the “KD (equilibrium dissociation constant, kd/ka)” value was found to be 4.66 µM and the kon was determined as 14900 M⁻¹ s⁻¹. Further, the “change in KD as compared with the parent peptide” value (parent peptide DPAPAWAHGG (SEQ ID NO:242)) was at least 100 fold.

H-DPAPAWAHGG-OH [NH2-DPAPAWAHGG-COOH]: under setting [2], the Kd was above 500 µM.

For “H-EWVHPQFEQKAK-NH2 [NH2-EWVHPQFEQKAK-amide]”, the “KD as compared with the Strep-Tag II peptide (SEQ ID NO:233)” value (result in words) is “decreased KD”.

Turning to “H-AFPDYLAEYHGG-NH2 [NH2-AFPDYLAEYHGG-amide]”, under setting [1], the “KD (equilibrium dissociation constant, kd/ka)” value came to 0.043 µM; the kon was 30100 M⁻¹ s⁻¹; the koff is 0.00128 s⁻¹. Besides, the “KD rank among the streptavidin peptide binders in Table 15” value (result in words) is on record as “lowest KD”.
